“And” between values parts separate entries of the source, which are not always exact repeats. Equal values may be shown once.
How the values were obtained:
CB2R-L182^ECL2I = CB2R-L182^ECL2I (Homo sapiens, UniProt P34972, L182I); assay: [35S]GTPγS assay, CB2R L182I mutant; format: biochemical; conditions: L182I mutant
CB2R WT [1] = molecular target: T1, CB2R WT (Homo sapiens, UniProt P34972); assay: [3H]CP55,940 displacement assay, CB2R WT; format: binding; conditions: for percentage specific [3H]CP55,940 binding: CB2R - WT, individual replicates
T1 sequence (P34972 whole entry): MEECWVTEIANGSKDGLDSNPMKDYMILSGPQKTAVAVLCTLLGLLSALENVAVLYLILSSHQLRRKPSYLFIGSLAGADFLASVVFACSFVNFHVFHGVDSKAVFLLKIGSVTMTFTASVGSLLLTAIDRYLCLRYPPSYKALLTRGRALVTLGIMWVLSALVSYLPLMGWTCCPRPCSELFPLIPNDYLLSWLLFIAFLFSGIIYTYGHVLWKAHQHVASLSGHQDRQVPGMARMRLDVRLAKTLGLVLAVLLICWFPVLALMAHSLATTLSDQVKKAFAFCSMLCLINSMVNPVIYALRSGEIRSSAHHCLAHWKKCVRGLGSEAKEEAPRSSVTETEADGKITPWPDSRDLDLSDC

CB1R-L359^6.51V [2] = molecular target: T2, CB1R-L359^6.51V (Homo sapiens, UniProt P21554, L359V); assay: [35S]GTPγS assay, CB1R L359V mutant; format: biochemical
T2 sequence (P21554 whole entry L359V): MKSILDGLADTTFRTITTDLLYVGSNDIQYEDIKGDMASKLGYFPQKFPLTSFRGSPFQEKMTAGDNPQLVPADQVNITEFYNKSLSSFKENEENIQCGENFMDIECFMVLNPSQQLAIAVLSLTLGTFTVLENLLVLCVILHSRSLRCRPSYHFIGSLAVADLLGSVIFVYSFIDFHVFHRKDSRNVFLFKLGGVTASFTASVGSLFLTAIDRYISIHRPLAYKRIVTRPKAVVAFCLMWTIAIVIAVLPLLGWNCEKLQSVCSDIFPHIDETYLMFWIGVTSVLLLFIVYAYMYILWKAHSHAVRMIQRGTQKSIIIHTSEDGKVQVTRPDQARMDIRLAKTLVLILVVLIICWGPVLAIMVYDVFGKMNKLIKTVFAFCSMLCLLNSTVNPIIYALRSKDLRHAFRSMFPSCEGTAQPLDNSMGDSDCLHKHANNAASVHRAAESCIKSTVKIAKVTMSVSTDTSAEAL

CB1R-L359^6.51V [3] = molecular target: T2, CB1R-L359^6.51V; assay: [3H]CP55,940 displacement assay, CB1R L359V mutant; format: binding; conditions: CB1R L3596.51V; 10 µM ligand; replicates 1-3
CB1R I267ECL2L [4] = molecular target: T3, CB1R I267ECL2L (Homo sapiens, UniProt P21554, I267L); assay: [35S]GTPγS assay, CB1R I267L mutant; format: biochemical
T3 sequence (P21554 whole entry I267L): as the sequence (P21554 whole entry L359V) above, with I267L, V359L counted along it

CB1R QuadrupleTM1,7 [5] = molecular target: T4, CB1R QuadrupleTM1,7 (Homo sapiens, UniProt P21554, I119V/Q116K/S123C/T377K); assay: [3H]CP55,940 displacement assay, CB1R quadruple mutant; format: binding
T4 construct: The WT CB1R and CB2R genes were subcloned into vector pcDNA3.1; HA signal peptide (N); expressed in transfected cells; host or cells: HEK293T (transient, membrane homogenates)
T4 sequence (P21554 whole entry Q116K/I119V/S123C/T377K): as the sequence (P21554 whole entry L359V) above, with Q116K, I119V, S123C, V359L, T377K counted along it

CB1R QuadrupleTM1,7 [6] = assay: [35S]GTPγS assay, CB1R quadruple mutant; format: biochemical, human
CB2R-Quadruple^TM1,7 = CB2R-Quadruple^TM1,7 (Homo sapiens, UniProt P34972, C40S/K279T/K33Q/V36I); assay: [3H]CP55,940 displacement assay, CB2R quadruple mutant; format: binding; conditions: for percentage specific [3H]CP55,940 binding: QuadrupleTM1,7, individual replicates
Sequence of CB2R-Quadruple^TM1,7 (P34972 whole entry K33Q/V36I/C40S/K279T): as the sequence (P34972 whole entry) above, with K33Q, V36I, C40S, K279T counted along it

CB2R-E181^ECL2D = CB2R-E181^ECL2D (Homo sapiens, UniProt P34972, E181D); assay: [35S]GTPγS assay, CB2R E181D mutant; format: biochemical; conditions: E181D mutant
Sequence of CB2R-E181^ECL2D (P34972 whole entry E181D): as the sequence (P34972 whole entry) above, with E181D counted along it

hCB1R WT = hCB1R WT (Homo sapiens, UniProt P21554); assay: [35S]GTPγS G protein activation assay, CB1R WT; format: biochemical; conditions: CB1R WT
Sequence of hCB1R WT (P21554 whole entry): as the sequence (P21554 whole entry L359V) above, with V359L counted along it

CB1R I267ECL2L [7] = molecular target: T3, CB1R I267ECL2L; assay: [3H]CP55,940 displacement assay, CB1R I267L mutant; format: binding
CB2R-I110^3.29A = CB2R-I110^3.29A (Homo sapiens, UniProt P34972, I110A); assay: [35S]GTPγS assay, CB2R I110A mutant; format: biochemical; conditions: for [35S]GTPγS binding: I1103.29A, individual replicates
Sequence of CB2R-I110^3.29A (P34972 whole entry I110A): as the sequence (P34972 whole entry) above, with I110A counted along it

CB2R-H95^2.65A = CB2R-H95^2.65A (Homo sapiens, UniProt P34972, H95A); assay: [35S]GTPγS assay, CB2R H95A mutant; format: biochemical; conditions: H95A mutant
Sequence of CB2R-H95^2.65A (P34972 whole entry H95A): as the sequence (P34972 whole entry) above, with H95A counted along it

CB2R WT [8] = molecular target: T1, CB2R WT; assay: [35S]GTPγS G protein activation assay, CB2R WT; format: biochemical; conditions: CB2R WT; maximum effect at 10 µM compared to WT (Suppl. Table 6)
[9] = I110A mutant, HEK293T membranes

Sequence of CB2R-L182^ECL2I (P34972 whole entry L182I): as the sequence (P34972 whole entry) above, with L182I counted along it

CC(C)CN1C(=O)CN(Cc2ccc(-c3ccc(F)c(CNC4CCOCC4)n3)cc2)C1=O [LEI-102, 1-(4-(5-fluoro-6-(((tetrahydro-2H-pyran-4-yl)amino)methyl)pyridin-2-yl)benzyl)-3-isobutylimidazolidine-2,4-dione]
EC50 (CB2R-L182^ECL2I; <5 when curve fit not finished): 39.8 nM | Emax (%) (CB2R-L182^ECL2I; at 10 µM compared to WT): 11 ± 8% | percentage specific [3H]CP55,940 binding (CB2R WT [1]; log [ligand] (M) -5): 11.20% and 5.48% and 13.91% | percentage specific [3H]CP55,940 binding (CB2R WT [1]; log [ligand] (M) -6): 40.37% and 13.48% and 13.16% | percentage specific [3H]CP55,940 binding (CB2R WT [1]; log [ligand] (M) -7): 87.52% and 46.85% and 48.46% | percentage specific [3H]CP55,940 binding (CB2R WT [1]; log [ligand] (M) -8): 156.63% and 87.43% and 104.52% | percentage specific [3H]CP55,940 binding (CB2R WT [1]; log [ligand] (M) -9): 143.94% and 83.15% and 100.75% | percentage specific [3H]CP55,940 binding (CB2R WT [1]; log [ligand] (M) -10): 162.62% and 107.24% and 130.29% | Ki (CB2R WT [1]; read-out: pKi (converted)): 31.6 nM | Agonist-mediated activation (CB1R-L359^6.51V [2]; CB1R L359V, 10 µM agonist): 1.1 ± 0.1 fold over its basal | G protein activation, fold over its basal (CB1R-L359^6.51V [2]; CB1R L3596.51V, individual replicates): 1.125 fold over its basal and 1.294 fold over its basal and 0.998 fold over its basal | percentage specific [3H]CP55,940 binding (CB1R-L359^6.51V [3]): 87.28 percentage and 69.23 percentage and 69.34 percentage | G protein activation, fold over its basal (CB1R I267ECL2L [4]; CB1R I267ECL2L, individual replicates): 1.03 fold over its basal and 1.063 fold over its basal and 1.016 fold over its basal | Agonist-mediated activation (CB1R I267ECL2L [4]; CB1R I267L, 10 µM agonist): 1.0 ± 0.0 fold over its basal | Displacement (%) of [3H]CP55,940 (CB1R QuadrupleTM1,7 [5]; CB1R Quadruple TM1,7, 10 µM compound): 26 ± 10% | percentage specific [3H]CP55,940 binding (CB1R QuadrupleTM1,7 [5]; CB1R QuadrupleTM1,7, 10 µM ligand, replicates 1-3): 70.97 percentage and 58.02 percentage and 92.08 percentage | Agonist-mediated activation (CB1R QuadrupleTM1,7 [6]; CB1R Quadruple TM1,7, 10 µM agonist): 1.2 ± 0.1 fold over its basal | G protein activation, fold over its basal (CB1R QuadrupleTM1,7 [6]; CB1R QuadrupleTM1,7, individual replicates): 1.167 fold over its basal and 1.343 fold over its basal and 1.151 fold over its basal | Ki (CB2R-Quadruple^TM1,7; CB2R Quadruple TM1,7 mutant, <5 when curve fit not finished): 158 nM | percentage specific [3H]CP55,940 binding (CB2R-Quadruple^TM1,7; log [ligand] (M) -5): 5.19% and 45.81% and -26.38% | percentage specific [3H]CP55,940 binding (CB2R-Quadruple^TM1,7; log [ligand] (M) -6): 60.64% and 32.84% and -34.85% | percentage specific [3H]CP55,940 binding (CB2R-Quadruple^TM1,7; log [ligand] (M) -7): 75.38% and 92.54% and 80.13% | percentage specific [3H]CP55,940 binding (CB2R-Quadruple^TM1,7; log [ligand] (M) -8): 120.94% and 110.56% and 172.31% | percentage specific [3H]CP55,940 binding (CB2R-Quadruple^TM1,7; log [ligand] (M) -9): 139.03% and 122.04% and 167.10% | percentage specific [3H]CP55,940 binding (CB2R-Quadruple^TM1,7; log [ligand] (M) -10): 103.18% and 81.86% and 136.81% | EC50 (CB2R-E181^ECL2D; <5 when curve fit not finished): 126 nM | Emax (%) (CB2R-E181^ECL2D; at 10 µM compared to WT): 28 ± 13% | Agonist-mediated activation (hCB1R WT; 10 µM agonist): 1.0 ± 0.1 fold over its basal | G protein activation, fold over its basal (hCB1R WT; individual replicates): 0.954 fold over its basal and 1.145 fold over its basal and 0.987 fold over its basal | percentage specific [3H]CP55,940 binding (CB1R I267ECL2L [7]; CB1R I267ECL2L, 10 µM ligand, replicates 1-3): 70.66 percentage and 79.50 percentage and 75.81 percentage | Displacement (%) of [3H]CP55,940 (CB1R I267ECL2L [7]; CB1R I267L, 10 µM compound): 25 ± 3% | EC50 (CB2R-I110^3.29A; [9]): 100 nM | pEC50 (CB2R-I110^3.29A; [9]): no significant effect | Emax (%) (CB2R-I110^3.29A; I110A mutant, at 10 µM compared to WT): 36 ± 13% | [35S]GTPγS binding (CB2R-I110^3.29A; log [ligand] (M) -5): 61.30 percentage of WT and 18.20 percentage of WT and 29.13 percentage of WT | [35S]GTPγS binding (CB2R-I110^3.29A; log [ligand] (M) -6): 35.42 percentage of WT and 6.50 percentage of WT and 8.34 percentage of WT | [35S]GTPγS binding (CB2R-I110^3.29A; log [ligand] (M) -7): 35.70 percentage of WT and -4.40 percentage of WT and 26.26 percentage of WT | [35S]GTPγS binding (CB2R-I110^3.29A; log [ligand] (M) -8): 11.80 percentage of WT and -18.30 percentage of WT and 10.49 percentage of WT | [35S]GTPγS binding (CB2R-I110^3.29A; log [ligand] (M) -9): -6.30 percentage of WT and 0.70 percentage of WT and 0.20 percentage of WT | [35S]GTPγS binding (CB2R-I110^3.29A; log [ligand] (M) -10): 15.50 percentage of WT and -9.30 percentage of WT and 14.53 percentage of WT | EC50 (CB2R-H95^2.65A; <5 when curve fit not finished): > 10000 nM | pEC50 (CB2R-H95^2.65A; <5 when curve fit not finished): significantly reduced | Emax (%) (CB2R-H95^2.65A; at 10 µM compared to WT): 64 ± 7% | Emax (%) (CB2R WT [8]): 103 ± 3%
